According to EP0700399B1, “36-DERIVATIVES OF RIFAMYCINS AND THEIR USE AS ANTIMICROBIAL AGENTS” (GRUPPO LEPETIT S.P.A., priority 1993, dated 1994):
Read-outs that look alike come from different tables or passages of the source.

What was measured:
Test in all cases: MIC by broth microdilution
[1] = tested on: Staphylococcus aureus; format: cell-based; conditions: Staphylococcus aureus; internal code L165; read-out: MIC of the compounds
[2] = tested on: Staph. aureus rifa-r^(2); format: cell-based; conditions: Staphylococcus aureus, read-out: MIC of the compounds
[3] = tested on: Staph. epidermidis ATCC 12228; format: cell-based; conditions: Staphylococcus epidermidis, ATCC12228; internal code L147; read-out: MIC of the compounds
[4] = tested on: Staph. haemolyticus rifa-r^(2); format: cell-based; conditions: Staphylococcus haemolyticus, read-out: MIC of the compounds
[5] = tested on: Streptococcus pyogenes; format: cell-based; conditions: Streptococcus pyogenes; internal code L49; read-out: MIC of the compounds
[6] = tested on: Strept. pneumoniae; format: cell-based; conditions: Streptococcus pneumoniae; internal code L44; read-out: MIC of the compounds
[7] = tested on: Enterococc. faecalis ATCC 7080; format: cell-based, Enterococcus faecalis; conditions: Enterococcus faecalis, ATCC7080; internal code L149; read-out: MIC of the compounds
[8] = tested on: Propionibact. acnes ATCC 6919; format: cell-based, Propionibacterium acnes; conditions: Cutibacterium acnes, ATCC6919; internal code L1014; anaerobic, 48 hours; read-out: MIC of the compounds
[9] = tested on: Bacteroides fragilis ATCC 23745; format: cell-based; conditions: Bacteroides fragilis, ATCC23745; internal code L1010; anaerobic, 48 hours; read-out: MIC of the compounds
[10] = tested on: Neisseria gonorrhoeae; format: cell-based; conditions: Neisseria gonorrhoeae; internal code L997; 5% carbon dioxide, 48 hours; read-out: MIC of the compounds
[11] = tested on: Haemoph. influenzae ATCC 19418; format: cell-based, Haemophilus influenzae; conditions: Haemophilus influenzae, ATCC19418; internal code L970; 5% carbon dioxide, 48 hours; read-out: MIC of the compounds
[12] = tested on: Escherichia coli; format: cell-based; conditions: Escherichia coli; internal code L47; read-out: MIC of the compounds
[13] = tested on: Esch. coli K12 hyperpermeable; format: cell-based, Escherichia coli; conditions: Escherichia coli, read-out: MIC of the compounds
[14] = tested on: Esch. coli K12 rifa-r^(1); format: cell-based, Escherichia coli; conditions: Escherichia coli, read-out: MIC of the compounds
[15] = tested on: Esch. coli K12 wild type; format: cell-based; conditions: Escherichia coli, K12WILDTYPE, internal code G210, read-out: MIC of the compounds
[16] = tested on: Proteus vulgaris ATCC 881; format: cell-based; conditions: Proteus vulgaris, ATCC881; internal code L79; read-out: MIC of the compounds
[17] = tested on: Pseudomonas aerug. ATCC10145; format: cell-based, Pseudomonas aeruginosa; conditions: Pseudomonas, ATCC10145; internal code L4; read-out: MIC of the compounds

SMILES | MIC [1] [µg/mL] | MIC [3] [µg/mL] | MIC [5] [µg/mL] | MIC [6] [µg/mL] | MIC [7] [µg/mL] | MIC [8] [µg/mL] | MIC [9] [µg/mL] | MIC [10] [µg/mL] | MIC [11] [µg/mL] | MIC [12] [µg/mL] | MIC [15] [µg/mL] | MIC [16] [µg/mL] | MIC [17] [µg/mL] | MIC [2] [µg/mL] | MIC [4] [µg/mL] | MIC [13] [µg/mL] | MIC [14] [µg/mL] | also measured
CO[C@H]1/C=C/O[C@@]2(C)Oc3c(C)c(O)c4c(c3C2=O)C(=O)C=C(NC(=O)/C(C)=C\C=C\[C@H](C)[C@H](O)[C@@H](C)[C@@H](O)[C@@H](C)[C@H](OC(=O)CF)[C@@H]1C)C4=O [Compound C2, 36-Fluororifamycin S] | 0.015 | 0.015 | 0.008 | 0.015 | 1 | 0.13 | 2 | 2 | 2 | 128 | ≥ 128 | 32 | 64 | – | – | – | – | MIC ([2]; internal code L1282, rifampicin resistant strain, highly resistant): 64 µg/mL; MIC ([4]; internal code L602, rifampicin resistant strain, highly resistant): ≥ 128 µg/mL; MIC ([13]; internal code G1640, hyperpermeable): 1 µg/mL; MIC ([14]; internal code G1064, rifampicin resistant strain, moderately resistant): > 128 µg/mL
CO[C@H]1/C=C/O[C@@]2(C)Oc3c(C)c(O)c4c(c3C2=O)C(=O)C=C(NC(=O)/C(C)=C\C=C\[C@H](C)[C@H](O)[C@@H](C)[C@@H](O)[C@@H](C)[C@H](OC(=O)CI)[C@@H]1C)C4=O [Compound C10, 36-Iodorifamycin S] | 0.06 | 0.06 | 0.015 | 0.03 | 2 | 0.13 | 0.5 | 16 | 4 | 64 | 128 | 32 | 32 | 32 | 64 | 1 | ≥ 128 | –
CO[C@H]1/C=C/O[C@@]2(C)Oc3c(C)c(O)c4c(c3C2=O)C(=O)C=C(NC(=O)/C(C)=C\C=C\[C@H](C)[C@H](O)[C@@H](C)[C@@H](O)[C@@H](C)[C@H](OC(=O)CSC)[C@@H]1C)C4=O [Compound C4, 36-Methylthiorifamycin S] | 0.008 | 0.001 | 0.008 | 0.002 | 0.5 | 0.06 | 0.5 | 0.5 | 1 | 64 | 64 | 8 | 32 | 32 | 128 | 0.51 | > 128 | –
